# Data: paper PMC3310325 (Bioconjugate Chemistry, 2012)
# Read-outs that look alike come from different tables or passages of the source.
# Tests used:
# [1] = system: HT1080 human fibrosarcoma xenografts; experiment: In vivo planar fluorescence imaging in HT1080 tumor-bearing mice; parameters: species or system human xenograft in male NCR nude mice
# [2] = system: MMP-1; settings: -PLGVR- sequence; cited from earlier work
# [3] = system: MMP-3; settings: -PLGVR- sequence; cited from earlier work
# [4] = system: MMP-7; settings: -PLGVR- sequence; cited from earlier work
# [5] = system: gelatinases; settings: -PLGVR- sequence; cited from earlier work
# [6] = target: T1, MMP-2 (Homo sapiens, UniProt P08253); settings: cited from earlier work
# T1 sequence (P08253 110-660): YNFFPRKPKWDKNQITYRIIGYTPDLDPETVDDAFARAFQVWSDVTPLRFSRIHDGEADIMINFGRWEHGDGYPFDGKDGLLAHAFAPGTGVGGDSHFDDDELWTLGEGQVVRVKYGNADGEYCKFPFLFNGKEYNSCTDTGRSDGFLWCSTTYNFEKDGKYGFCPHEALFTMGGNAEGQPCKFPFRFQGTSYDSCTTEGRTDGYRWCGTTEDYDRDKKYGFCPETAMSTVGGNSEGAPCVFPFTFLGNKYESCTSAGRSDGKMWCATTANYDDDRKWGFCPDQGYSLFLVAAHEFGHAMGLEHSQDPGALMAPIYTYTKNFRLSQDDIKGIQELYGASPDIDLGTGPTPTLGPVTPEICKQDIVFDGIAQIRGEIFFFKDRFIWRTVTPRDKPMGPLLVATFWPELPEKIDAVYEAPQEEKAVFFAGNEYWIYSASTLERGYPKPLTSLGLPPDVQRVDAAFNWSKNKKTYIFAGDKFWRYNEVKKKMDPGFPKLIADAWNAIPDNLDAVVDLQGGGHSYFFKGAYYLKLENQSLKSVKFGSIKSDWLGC
# [7] = system: MMP-2; settings: 450 kDa co-polymer conjugated to -Pro-Leu-Gly~Val-Arg-Gly-; cited from earlier work
# [8] = target: T1, MMP-2; settings: cited from earlier work; remark: listed apart in the source
# [9] = system: MMP-9; settings: single-stranded peptide without the GPO triplets; cited from earlier work
# [10] = system: MMP-7; settings: cited from earlier work
# [11] = previously determined; cited from earlier work
compound,measurement,setting,value
CNC(=O)[C@H](Cc1c[nH]c2ccccc12)NC(=O)[C@@H](CC(=O)NO)CC(C)C [Ilomastat],time course of tumor fluorescence intensity with inhibitor,"[1]; mice treated with Ilomastat 1 mg/kg i.p., LS276-THP i.p.","a steady increase in fluorescence intensity occurred, indicating incomplete inhibition of tumor-associated MMP-2/MMP-9 activity"
-PLGVR- [MMPSense™ 680],tumor contrast versus contralateral thigh,"[1]; 24 h post-injection, MMPSense 680 2 nmol i.v., n=3",about two-fold
same,tumor-specific fluorescence enhancement relative to LS276-THP,[1]; MMPSense 680 2 nmol i.v. vs LS276-THP i.p.,slightly higher
same,tumor-specific fluorescence contrast over time,"[1]; MMPSense 680 2 nmol i.v., n=3, 24 h",increased over time for 24 h
same,proteolysis by MMP-1,[2],subject to proteolysis
same,proteolysis by MMP-3,[3],subject to proteolysis
same,proteolysis by MMP-7,[4],subject to proteolysis
same,proteolysis by gelatinases,[5],subject to proteolysis
-Pro-Leu-Gly~Val-Arg-Gly-,Km,[6],290 µM
same,kcat,[6],4.1 s⁻¹
same,kcat/KM,[6],14000 M⁻¹ s⁻¹
-Pro-Leu-Gly~Val-Arg-Gly- [poly-lysine-PEG co-polymer],in vivo visualization of MMP-2 activity,[7],MMP-2 activity in mouse models was visualized
GPPG~VVGEKGEQ,hydrolysis by MMP-2,[8]; single-stranded peptide without the GPO triplets,hydrolyzed extremely slowly
same,hydrolysis by MMP-9,[9],hydrolyzed extremely slowly
GVPLSLTMGC,level of quenching,[10]; heterologous donor and acceptor pair of near infrared dyes on the N- and C-terminus,85%
same,fluorescence increase after digestion with MMP-7,[10]; heterologous donor/acceptor NIR dyes on N- and C-terminus,~7 fold
"[(GPO)5GPK((7-methoxycoumarin-4-yl)acetyl)GPPG~VVGEK(2,4-dinitrophenyl)GEQ(GPO)5]3 [fluorogenic THP]",midpoint transition temperature TM,[11],45 °C
same,Km,[8]; MMP-2 hydrolysis,4.4 µM
same,kcat,[8]; MMP-2 hydrolysis,0.062 s⁻¹
same,kcat/KM,[8]; MMP-2 hydrolysis,"14,000 s^−1M^−1"
